# Experimental data published in patent US20260273059A1, “METHODS OF EVADING IMMUNE REJECTION” (William Marsh Rice University, priority 2023, published 2026).
# Tested on: cytokine producing, kill switch inducible cell line
# Assay: Small molecule inducible kill switch
# Format: cell-based
# Conditions: 100 nM
# Description: Cell engineering for cells equipped with a small molecule inducible kill switch consist of a base epithelial cell line and a highly modular PiggyBAC transposon system. This vector system is composed of a strong promotor that is constitutively expressed, a kozak translation initiation sequence, the gene of interest (any cytokine, chemokine, or other protein), an internal ribosome entry site, a kill switch gene, a puromycin resistance gene and a poly-A tail in between two inverted terminal repeat sequences. Variation to this system requires only gene of interest swapping and allows for quick and easy “plug and play” cell engineering. The kill switch can be added to enhance the safety of cells engineered to produce the following cytokines: IL-1, IL-1a, IL-1b, IL-1RA, IL-2, IL-4, IL-5, IL-6, IL-7, IL-8, IL-9, IL-10, IL-11, IL-12, IL-12a, IL-12b, IL-13, IL-14, IL-15, IL-16, IL-17, IL-20, IFN-α, IFN-b, IFN-c, TNF-α, TNF-b, TGF-b, CCL-1, CCL-2, CCL-3, CCL-4, CCL-5, CCL-6, CCL-7, CCL-8, CCL-9, CCL-10, CCL-11, CCL-12, CCL-13, CCL-14, CCL-15, CCL-16, CCL-18, CCL-19, CCL-20, CCL-21, CCL-22, CCL-23, CCL-24, CCL-25, CCL-26, CCL-27, CCL-28, CXCL1, CXCL2, CXCL3, CXCL4, CXCL5, CXCL6, CXCL7, CXCL8, CXCL9, CXCL10, CXCL11, CXCL12, CXCL13, CXCL14, CXCL15, CXCL16, CXCL17. […]
smiles,measurement,value
"CC[C@H](C(=O)N1CCCC[C@H]1C(=O)O[C@H](CCc1ccc(OC)c(OC)c1)c1cccc(OCC(=O)NCCNC(=O)COc2cccc([C@@H](CCc3ccc(OC)c(OC)c3)OC(=O)[C@@H]3CCCCN3C(=O)[C@@H](CC)c3cc(OC)c(OC)c(OC)c3)c2)c1)c1cc(OC)c(OC)c(OC)c1 [AP1903, rimiducid]",time in which the kill switch inducible cell line responds,less than 24 hours
